Experimental data: US20240238284A1, “COMPOUNDS AND COMPOSITIONS FOR THE TREATMENT OF MPNST” (Novartis AG, priority 2021, published 2024)

Columns and labels:
NF1-MPNST PDX models = assay: tumor growth in NF1-MPNST patient-derived xenograft (PDX) models in NRG mice; assay type: in vivo; conditions: oral gavage, TNO155 7.5 mg/kg, ribociclib 75 mg/kg once daily, up to 42 days
Method: The PDX models of Example 1 were developed and characterized according to Dehrner, et al., JCI Insight 2021: 6(6):e146351 and Pollard, K., et al., Sci Data, 2020; 7:184). NRG (NOD-Rag1^null IL 2rg^null, NOD rag gamma) mice are used for all experiments.
Tumor response, survival and toxicity data were collected and analyzed. To form tumors, 1-2 million NF1-MPNST PDX-derived cells (JH-2-031, JH-2-079, JH-2-002, WU-225, WU-386, or WU-545)) in 50% Matrigel (BD Biosciences) were injected subcutaneously in 4- to 6-week-old female NRG mice. The tumors were measured and mice weighed twice weekly once tumors began to form. Drugs were given beginning when tumors reached 150-200 mm^3. Mice were treated with vehicle, single agent (A or B or C) or combination (A+B or B+C) for up to 42 days. Each group consisted of three to five mice. Tumor volume was calculated using the formula: V=L×W2 (π/6), where L=longest diameter and W=width.

p-ERK in WU-386 tumors = assay: pharmacodynamic p-ERK levels in WU-386 PDX tumors; assay type: in vivo, mice; conditions: WU-386 tumors collected 4-hour post end-point treatment (4 weeks)
[1] = system: ten native NF1-MPNST cell lines; assay: cell number by trypan blue exclusion, native NF1-MPNST cell lines; assay type: cell-based; conditions: TNO155 0.3, 1, 3 μM; ribociclib 1, 3 μM; about 1 week
Source text: (§1) Cell numbers were counted using trypan blue exclusion assay (Sigma-Aldrich) and normalized to the DMSO control.

[2] = system: trametinib resistant lines (ST8814Res and NF90.8Res); assay: cell number by trypan blue exclusion, trametinib resistant lines; assay type: cell-based; conditions: TNO155 0.3, 1, 3 μM, ribociclib 1, 3 μM, about 1 week
Source text: as §1

[3] = system: Rb-positive cell lines derived from diverse cancer types; assay: Rb phosphorylation and cell cycle progression in Rb-positive cell lines; assay type: cell-based; conditions: more than 40 Rb-positive cell lines

| Structure (SMILES) | anti-tumor activity / tumor growth inhibition in PDX models (NF1-MPNST PDX models) | p-ERK levels in tumors (p-ERK in WU-386 tumors) | cell number response normalized to DMSO control [1] | cell number response normalized to DMSO control [2] | Retinoblastoma protein (Rb) phosphorylation and G1 to S phase cell cycle progression [3] |
| --- | --- | --- | --- | --- | --- |
| C[C@@H]1OCC2(CCN(c3cnc(Sc4ccnc(N)c4Cl)c(N)n3)CC2)[C@@H]1N [TNO155, (3S,4S)-8-(6-amino-5-((2-amino-3-chloropyridin-4-yl)thio)pyrazin-2-yl)-3-methyl-2-oxa-8-azaspiro[4.5]decan-4-amine] | substantial anti-tumor activity as a single agent | decrease in p-ERK levels | partial sensitivity | limited activity | – |
| CN(C)C(=O)c1cc2cnc(Nc3ccc(N4CCNCC4)cn3)nc2n1C1CCCC1 [Ribociclib, 7-cyclopentyl-N,N-dimethyl-2-((5-(piperazin-1-yl)pyridin-2-yl)amino)-7H-pyrrolo[2,3-d]pyrimidine-6-carboxamide] | – | – | – | – | inhibited Retinoblastoma protein (Rb) phosphorylation and interfered with G1 to S phase cell cycle progression |
